Data on 13 compounds can be found in ChEMBL document CHEMBL5055662, “Characterization of an aromatic trifluoromethyl ketone as a new warhead for covalently reversible kinase inhibitor design” (Bioorg Med Chem, 2021).

Test [1] has as its target Fibroblast growth factor receptor 3 (Homo sapiens, UniProt P22607). Kind of test: Inhibition of FGFR3 (unknown origin) using Tyr04 peptide as substrate incubated for 1 hr in presence of ATP by FRET based Z'-LYTE assay.
The target in test [2] is Fibroblast growth factor receptor 1 (Homo sapiens, UniProt P11362). Description: Inhibition of FGFR1 (unknown origin) using Tyr04 peptide as substrate incubated for 1 hr in presence of ATP by FRET based Z'-LYTE assay.
Test [3] deals with Fibroblast growth factor receptor 2 (Homo sapiens, UniProt P21802). Description: Inhibition of FGFR2 (unknown origin) using Tyr04 peptide as substrate incubated for 1 hr in presence of ATP by FRET based Z'-LYTE assay.
The target of test [4] is T1, Tyrosine-protein kinase JAK3 (Homo sapiens, UniProt P52333).
T1 sequence (P52333 whole entry): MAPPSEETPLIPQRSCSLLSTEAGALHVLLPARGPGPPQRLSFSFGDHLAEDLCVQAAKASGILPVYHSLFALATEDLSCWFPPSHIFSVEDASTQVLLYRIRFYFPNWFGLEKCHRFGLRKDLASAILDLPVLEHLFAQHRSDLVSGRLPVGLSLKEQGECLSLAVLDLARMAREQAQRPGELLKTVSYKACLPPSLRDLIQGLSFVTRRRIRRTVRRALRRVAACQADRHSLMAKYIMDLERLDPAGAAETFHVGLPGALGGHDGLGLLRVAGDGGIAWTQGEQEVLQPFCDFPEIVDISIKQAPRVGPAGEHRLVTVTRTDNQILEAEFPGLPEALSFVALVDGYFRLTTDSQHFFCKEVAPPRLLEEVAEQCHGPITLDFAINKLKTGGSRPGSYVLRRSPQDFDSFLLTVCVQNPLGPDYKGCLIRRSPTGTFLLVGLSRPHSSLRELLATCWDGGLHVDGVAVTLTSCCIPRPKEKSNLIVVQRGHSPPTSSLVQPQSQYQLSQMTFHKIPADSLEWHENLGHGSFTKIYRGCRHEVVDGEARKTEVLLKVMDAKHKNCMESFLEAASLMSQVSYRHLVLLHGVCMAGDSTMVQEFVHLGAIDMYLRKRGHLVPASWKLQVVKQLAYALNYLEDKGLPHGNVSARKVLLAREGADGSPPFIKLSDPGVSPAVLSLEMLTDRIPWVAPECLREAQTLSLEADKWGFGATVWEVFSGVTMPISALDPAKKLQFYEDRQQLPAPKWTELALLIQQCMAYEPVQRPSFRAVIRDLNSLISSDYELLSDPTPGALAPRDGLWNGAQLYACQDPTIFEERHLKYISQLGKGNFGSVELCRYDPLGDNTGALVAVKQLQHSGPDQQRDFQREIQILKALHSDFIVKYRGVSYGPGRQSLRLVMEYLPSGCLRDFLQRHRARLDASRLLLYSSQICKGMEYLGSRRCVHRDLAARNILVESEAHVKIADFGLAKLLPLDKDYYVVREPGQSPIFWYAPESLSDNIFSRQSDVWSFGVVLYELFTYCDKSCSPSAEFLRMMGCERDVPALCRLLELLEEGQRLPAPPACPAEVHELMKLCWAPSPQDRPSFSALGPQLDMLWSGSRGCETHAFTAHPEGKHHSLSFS
Description: Inhibition of JAK3 (unknown origin) incubated for 1 hr in presence of ATP and substrate by FRET based Z'-LYTE assay.

The target of test [5] is Fibroblast growth factor receptor 4 (Homo sapiens) (UniProt P22455). Description: Reversible covalent binding affinity to recombinant His-tagged human FGFR4 expressed in baculovirus expression system assessed as recovery of kinase activity preincubated for 120 mins followed by dialysis of protein for 3 days by MALDI-TOF MS analysis relative to control. Particulars: time 4440.0 min.
Chain of Fibroblast growth factor receptor 4 (Homo sapiens) (P22455 22-802 limits assumed): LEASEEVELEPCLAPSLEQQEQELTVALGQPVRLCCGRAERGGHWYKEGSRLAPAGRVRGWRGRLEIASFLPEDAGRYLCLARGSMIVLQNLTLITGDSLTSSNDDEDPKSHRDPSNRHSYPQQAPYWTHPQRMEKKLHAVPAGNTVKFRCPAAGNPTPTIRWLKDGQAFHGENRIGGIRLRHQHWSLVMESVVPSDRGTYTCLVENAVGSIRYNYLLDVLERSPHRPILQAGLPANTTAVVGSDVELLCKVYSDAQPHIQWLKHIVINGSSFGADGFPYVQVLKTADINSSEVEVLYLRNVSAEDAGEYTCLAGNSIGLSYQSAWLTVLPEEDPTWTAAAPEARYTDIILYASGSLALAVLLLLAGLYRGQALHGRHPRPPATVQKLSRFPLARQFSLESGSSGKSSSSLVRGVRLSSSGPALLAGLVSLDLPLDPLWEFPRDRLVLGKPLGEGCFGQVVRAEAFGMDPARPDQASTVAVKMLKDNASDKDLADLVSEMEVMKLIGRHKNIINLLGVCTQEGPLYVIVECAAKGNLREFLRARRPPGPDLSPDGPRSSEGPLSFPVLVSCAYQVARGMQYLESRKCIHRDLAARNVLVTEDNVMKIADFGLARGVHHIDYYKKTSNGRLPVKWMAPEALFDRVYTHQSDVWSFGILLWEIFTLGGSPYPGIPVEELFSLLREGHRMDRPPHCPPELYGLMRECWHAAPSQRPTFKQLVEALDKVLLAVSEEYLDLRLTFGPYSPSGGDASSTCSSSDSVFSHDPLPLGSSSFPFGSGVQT

Chain of Fibroblast growth factor receptor 3 (P22607 whole entry): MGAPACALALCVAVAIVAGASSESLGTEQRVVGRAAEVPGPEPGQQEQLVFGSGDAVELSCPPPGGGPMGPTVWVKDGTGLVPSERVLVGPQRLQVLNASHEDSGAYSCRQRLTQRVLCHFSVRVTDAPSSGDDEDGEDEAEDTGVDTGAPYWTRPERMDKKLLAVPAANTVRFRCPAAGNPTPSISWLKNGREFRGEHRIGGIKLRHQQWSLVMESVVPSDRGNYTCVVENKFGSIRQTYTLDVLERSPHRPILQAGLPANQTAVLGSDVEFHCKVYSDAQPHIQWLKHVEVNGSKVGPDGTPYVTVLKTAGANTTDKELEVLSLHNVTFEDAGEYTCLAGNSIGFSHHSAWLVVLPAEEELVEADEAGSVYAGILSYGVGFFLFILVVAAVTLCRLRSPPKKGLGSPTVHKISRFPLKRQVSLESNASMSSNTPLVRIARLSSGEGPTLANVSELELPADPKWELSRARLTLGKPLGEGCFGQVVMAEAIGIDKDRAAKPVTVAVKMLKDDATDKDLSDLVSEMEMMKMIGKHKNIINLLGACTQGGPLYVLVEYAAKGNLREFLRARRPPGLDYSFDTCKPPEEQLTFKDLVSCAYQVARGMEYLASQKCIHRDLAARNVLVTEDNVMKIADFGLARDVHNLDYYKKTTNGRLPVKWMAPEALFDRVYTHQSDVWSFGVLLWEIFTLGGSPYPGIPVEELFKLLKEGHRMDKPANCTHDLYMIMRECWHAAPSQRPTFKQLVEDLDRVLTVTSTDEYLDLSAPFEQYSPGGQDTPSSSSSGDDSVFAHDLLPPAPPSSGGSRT
Chain of Fibroblast growth factor receptor 2 (P21802 whole entry): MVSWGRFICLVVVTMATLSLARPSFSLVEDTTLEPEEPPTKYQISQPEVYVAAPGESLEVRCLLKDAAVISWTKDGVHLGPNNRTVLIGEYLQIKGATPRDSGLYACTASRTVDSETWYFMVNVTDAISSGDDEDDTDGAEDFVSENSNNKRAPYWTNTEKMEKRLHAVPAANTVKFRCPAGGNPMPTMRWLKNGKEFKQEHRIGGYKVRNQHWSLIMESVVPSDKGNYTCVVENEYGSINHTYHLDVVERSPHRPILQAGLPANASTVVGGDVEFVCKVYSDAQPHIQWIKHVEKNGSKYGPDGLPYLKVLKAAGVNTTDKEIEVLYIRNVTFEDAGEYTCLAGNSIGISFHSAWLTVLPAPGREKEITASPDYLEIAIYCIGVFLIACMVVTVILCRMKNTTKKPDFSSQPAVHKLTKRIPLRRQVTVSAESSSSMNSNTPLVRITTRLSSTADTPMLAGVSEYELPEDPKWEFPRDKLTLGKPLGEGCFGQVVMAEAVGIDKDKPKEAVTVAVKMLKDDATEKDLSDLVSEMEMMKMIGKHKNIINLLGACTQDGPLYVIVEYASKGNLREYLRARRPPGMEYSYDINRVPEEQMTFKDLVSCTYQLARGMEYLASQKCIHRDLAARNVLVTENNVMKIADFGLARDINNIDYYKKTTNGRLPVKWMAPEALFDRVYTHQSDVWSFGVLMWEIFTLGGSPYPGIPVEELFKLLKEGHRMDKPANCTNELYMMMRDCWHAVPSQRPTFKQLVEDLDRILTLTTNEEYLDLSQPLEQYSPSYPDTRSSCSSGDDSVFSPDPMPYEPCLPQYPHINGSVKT
Chain of Fibroblast growth factor receptor 1 (P11362 whole entry): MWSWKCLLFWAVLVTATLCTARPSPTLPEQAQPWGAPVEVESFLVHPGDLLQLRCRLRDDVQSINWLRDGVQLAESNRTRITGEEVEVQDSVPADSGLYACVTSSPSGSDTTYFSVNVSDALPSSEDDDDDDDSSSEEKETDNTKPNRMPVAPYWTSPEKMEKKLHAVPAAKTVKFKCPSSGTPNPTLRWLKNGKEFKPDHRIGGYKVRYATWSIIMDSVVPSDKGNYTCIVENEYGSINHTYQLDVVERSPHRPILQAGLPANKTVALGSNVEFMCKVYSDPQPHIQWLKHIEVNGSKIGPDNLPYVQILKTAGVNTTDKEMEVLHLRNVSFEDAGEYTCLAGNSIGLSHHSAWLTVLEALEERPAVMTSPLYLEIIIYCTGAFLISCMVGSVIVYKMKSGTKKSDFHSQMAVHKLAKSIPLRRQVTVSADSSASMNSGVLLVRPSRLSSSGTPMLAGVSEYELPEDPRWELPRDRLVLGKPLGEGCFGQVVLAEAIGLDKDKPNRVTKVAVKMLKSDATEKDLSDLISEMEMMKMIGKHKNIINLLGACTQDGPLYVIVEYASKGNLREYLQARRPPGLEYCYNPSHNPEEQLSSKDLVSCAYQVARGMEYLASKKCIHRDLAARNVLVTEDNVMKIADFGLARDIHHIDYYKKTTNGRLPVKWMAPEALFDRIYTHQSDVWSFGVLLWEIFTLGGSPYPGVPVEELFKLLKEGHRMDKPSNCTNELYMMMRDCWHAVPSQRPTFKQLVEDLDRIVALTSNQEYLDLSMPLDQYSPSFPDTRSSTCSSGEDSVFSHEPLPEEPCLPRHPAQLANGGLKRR

Consider `CC(C)Oc1cc(NC(=O)N2CCCc3ccc(C(=O)C(F)(F)F)nc32)ncc1C#N`, for which the IC50 in test [1], in test [2] and in test [3] was above 10 µM in each case.
Consider `O=C(c1ccc(-c2nc3cnc4[nH]ccc4c3n2C2CCCCC2)o1)C(F)(F)F`, for which the IC50 in test [4] was determined as 0.0872 µM.
In the case of `Cc1ccc(C(=O)Nc2ccc(CN3CCN(C)CC3)c(C(F)(F)F)c2)cc1C#Cc1cnc2cccnn12`, in test [5], the Activity came out at 100%.
Turning to `COCCNc1cc(NC(=O)N2CCCc3ccc(C(=O)C(F)(F)F)nc32)ncc1C#N`, the IC50 in test [1], in test [2] and in test [3] was above 10 µM each time.
Consider `COc1cc(NC(=O)N2CCCc3ccc(C(=O)C(F)(F)F)nc32)ncc1C#N`, for which the IC50 in test [1], in test [2] and in test [3] was above 10 µM in each case.
For the compound `CCCCOc1cc(NC(=O)N2CCCc3ccc(C(=O)C(F)(F)F)nc32)ncc1C#N`, the IC50 in test [1], in test [2] and in test [3] was above 10 µM each time.
Take `N#Cc1cnc(NC(=O)N2CCCc3ccc(C(=O)C(F)(F)F)nc32)cc1OC1CCOC1` (stereo not given): the IC50 in test [1], in test [2] and in test [3] was above 10 µM throughout.
For the compound `CC(C)Oc1cc(NC(=O)N2CCCc3ccc(C=O)nc32)ncc1C#N`, the concentration for half-maximal inhibition (IC50) in test [1], in test [2] and in test [3] was above 10 µM throughout.
As for `CCOc1cc(NC(=O)N2CCCc3ccc(C(=O)C(F)(F)F)nc32)ncc1C#N`, the IC50 in test [1], in test [2] and in test [3] was above 10 µM throughout.
In the case of `N#Cc1cnc(NC(=O)N2CCCc3ccc(C(=O)C(F)(F)F)nc32)cc1OC1CCCCC1`, the IC50 in test [1], in test [2] and in test [3] was above 10 µM in each case.
For `N#Cc1cnc(NC(=O)N2CCCc3ccc(C(=O)C(F)(F)F)nc32)cc1OC1CCCC1`, the IC50 in test [1], in test [2] and in test [3] was above 10 µM throughout.
For `CCCOc1cc(NC(=O)N2CCCc3ccc(C(=O)C(F)(F)F)nc32)ncc1C#N`, the IC50 in test [1], in test [2] and in test [3] was above 10 µM in each case.
As for `COCCOc1cc(NC(=O)N2CCCc3ccc(C(=O)C(F)(F)F)nc32)ncc1C#N`, the IC50 in test [1], in test [2] and in test [3] was above 10 µM throughout.

What is called IC50 is the concentration at which inhibition is half-maximal.
